In one series the test system is CHIKV nsP2 protease. Set-up: method as in PMID 33661906. The conditions noted are these: Targeted virus CHIKV; cited from earlier work.
A further series concerns YFV NS2B/NS3 protease. The conditions noted are these: cited from earlier work.
The next series relates to ZIKV NS2B/NS3 protease. The conditions noted are these: Targeted virus ZIKV; cited from earlier work.
Series [1] deals with T1, CHIKV nsP2pro (Chikungunya virus, UniProt Q8JUX6). The experiment in a line: Thermal unfolding followed by Trp fluorescence, CHIKV protease. The format is binding.
In series [2] the target is T1, CHIKV nsP2pro. The experiment in a line: biochemical. The format is binding.
Series [3] concerns the target T2, ZIKV NS2B/NS3pro (Zika virus, UniProt A0A140DLX4). The experiment in a line: biochemical.
Series [4] relates to Chikungunya virus (strain ECSA). Kind of series: Virucidal / time-of-drug addition plaque-forming assay, CHIKV. The format is cell-based. The conditions noted are these: 50 µM, virus and compound incubated 1 h at RT, Vero cells.
The conditions of series [5]: ref https://www.drugbank.ca/drugs/DB00140; cited from earlier work.
Series [6] has as its target T3, YFV NS2B/NS3pro (Yellow fever virus, UniProt Q1X881). Kind of series: biochemical. The format is binding.
Series [7] deals with T3, YFV NS2B/NS3pro. The format is binding.
Series [8] deals with T2, ZIKV NS2B/NS3pro. The experiment in a line: biochemical. The format is binding.
The target of series [9] is T3, YFV NS2B/NS3pro. Kind of series: biochemical.
For series [10], the system named is Zika virus (strain ZIKVBR). Kind of series: Virucidal / time-of-drug addition plaque-forming assay, ZIKV. The format is cell-based. The conditions noted are these: 50 µM, Vero cells.
The target of series [11] is T1, CHIKV nsP2pro. The experiment in a line: biochemical.
A short description of another series: in vitro. The conditions noted are these: Cercopithecus aethiops (African green monkey).
In series [12] the target is T2, ZIKV NS2B/NS3pro. Kind of series: Thermal unfolding followed by Trp fluorescence, ZIKV protease. The format is binding. The conditions noted are these: protease alone 43 °C.
In series [13] the test system is serine protease of the human cytomegalovirus (HCMV). Set-up: method as in PMID 8639546. The conditions noted are these: cited from earlier work.
Series [14] relates to yellow fever virus (vaccinal strain). The format is cell-based.
The mark [15] stands for this setting: read-out: Inhibition of protease activity, primary test.

For `COc1ccc([C@@H]2CC(=O)c3c(O)cc(O)cc3O2)cc1O` [Hesperetin], the figures for the IC50 in the series with CHIKV nsP2 protease, with YFV NS2B/NS3 protease and with ZIKV NS2B/NS3 protease were 2.5 µM, 2 µM and 12.6 µM, respectively.

Regarding `COc1ccc2c(O[C@@H]3C[C@H]4C(=O)N[C@]5(C(=O)NS(=O)(=O)C6CC6)C[C@H]5/C=C\CCCCN(C)C(=O)[C@@H]4C3)cc(-c3nc(C(C)C)cs3)nc2c1C` [Simeprevir], in the series with ZIKV NS2B/NS3 protease, the IC50 was 2.6 µM.

`Cc1cc2nc3c(=O)[nH]c(=O)nc-3n(C[C@H](O)[C@H](O)[C@H](O)CO)c2cc1C` [riboflavin]: the results for the “Tm of protease-riboflavin complex” value at CHIKV nsP2pro [1] (protease alone 47 °C), at YFV NS2B/NS3pro [7] and on ZIKV NS2B/NS3pro [12] were 52 °C, 51 °C and 51 °C, respectively. Also, the ΔTm at CHIKV nsP2pro [1] (protein 10 µM, riboflavin 75 µM) is 5 °C; at YFV NS2B/NS3pro [7], 4 °C. The “Excitation Shift” value on CHIKV nsP2pro [2], at YFV NS2B/NS3pro [6] and on ZIKV NS2B/NS3pro [8] was “blue edge excitation shift” each time. For the same molecule, the figures for the Kd on CHIKV nsP2pro [2], at YFV NS2B/NS3pro [6] and at ZIKV NS2B/NS3pro [8] (KD ± STD) were 2.8 ± 0.7 µM, 18.2 ± 3.9 µM and 25.1 µM, respectively. Also, the “Inhibition Mode” value (at ZIKV NS2B/NS3pro [3]; at YFV NS2B/NS3pro [9]; at CHIKV nsP2pro [11]; in series [13]) was “competitive” each time. Also, the IC100 on ZIKV NS2B/NS3pro [3] (1 h, read-out: Final concentration to inhibit 100% of protease) turned out to be 220 µM. The IC50 is 79.4 ± 5 µM on ZIKV NS2B/NS3pro [3] (IC50 ± STD); 79.4 µM on ZIKV NS2B/NS3pro [3] (pIC50); 45.7 ± 2.9 µM at YFV NS2B/NS3pro [9]; 0.093 ± 0.0057 µM at CHIKV nsP2pro [11]; 0.3 µM in series [13]. The inhibition at 20 µM is 10% on ZIKV NS2B/NS3pro [3] (setting [15]), 30% at YFV NS2B/NS3pro [9] (setting [15]) and 100% at CHIKV nsP2pro [11] (setting [15]). Besides, the “Decrease of CHIKV replication, virucidal assay” value in series [4] is 44.35%. In [5], the LogP is −1.5. At YFV NS2B/NS3pro [9], the “Final concentration to inhibit 100% of protease” value worked out at 200 µM. In addition, the “Prevention of virus entry (virucidal assay)” value in [10] and in series [14] was “not observed” each time. The “LE (ligand efficiency)” value on CHIKV nsP2pro [11] worked out at 0.36. The “Required concentration to inhibit protease (100%)” value at CHIKV nsP2pro [11] worked out at 5 µM. The inhibition at 1 µM at CHIKV nsP2pro [11] (setting [15]) is around 85%. For the same molecule, the CC50 in the series “in vitro” came out at 72.3 µM. The “Effect on cell viability” value with Vero cells is reported as “does not affect cell viability”.

Consider `CO[C@@H]1[C@@H](OC(N)=O)[C@@H](O)[C@H](Oc2ccc3c(O)c(NC(=O)c4ccc(O)c(CC=C(C)C)c4)c(=O)oc3c2C)OC1(C)C` [Novobiocin], for which the IC50 in the series with ZIKV NS2B/NS3 protease is […].

The term IC50 denotes the concentration needed to halve the response being measured. Usually ΔTm stands for the shift of the melting midpoint relative to a reference. A word on the Kd: it is a measure of binding affinity in units of concentration. The inhibition is the relative decrease from the control value, in per cent. As a reminder, the LogP is the decadic logarithm of the partition coefficient of the neutral form, usually between octanol and water.

These data come from paper PMC9315535 (Microorganisms, 2022).
